Our source for the carcinogen call values is PubChem BioAssay AID1259411 (Chemical Carcinogenesis Research Information System (CCRIS), 2018).

Calls of active or inactive are those of the source. How the calls were made is not given here.

The series has as its system rodent carcinogenicity bioassays, tumor incidence. Description: CCRIS carcinogenicity studies. To be noted: Dose: 0, Dose: 0. Put shortly: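 NCI-built, expert-reviewed records of carcinogenicity and related test outcomes (mutagenicity, tumor promotion/inhibition) compiled from published and report sources, historical span 1985-2011, not updated.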

Regarding `Nc1ccn([C@H]2CC[C@@H](CO)O2)c(=O)n1`, the carcinogen call by setting is: (Species: MOUSE, Strain/Sex: B6C3F1/FEMALE, Route: GAVAGE, 500, 1000 MG/KG BW A DAY FOR 6 MO (STUDY DURATION: 6 MO), 500, 1000 MG/KG BW A DAY FOR 6 MO (STUDY DURATION: 6 MO), Tumor Site: Type of Lesion: THYMUS: LYMPHOMA) “active; positive”; (Species: MOUSE, Strain/Sex: B6C3F1/FEMALE, Route: GAVAGE, 500, 1000 MG/KG/D FOR 13 WK (STUDY DURATION: 13 WK), 500, 1000 MG/KG/D FOR 13 WK (STUDY DURATION: 13 WK)) “inactive; negative”; (Species: MOUSE, Strain/Sex: B6C3F1/FEMALE, Route: GAVAGE, 500, 1000 MG/KG/D FOR 13 WK FOLLOWED BY 4 WK OF RECOVERY (STUDY DURATION: 17 WK), 500, 1000 MG/KG/D FOR 13 WK FOLLOWED BY 4 WK OF RECOVERY (STUDY DURATION: 17 WK)) “inactive; negative”; (Species: MOUSE, Strain/Sex: B6C3F1/FEMALE, Route: GAVAGE, 500, 1000 MG/KG/D FOR 13 WK FOLLOWED BY 13 WK FOR RECOVERY (STUDY DURATION: 26 WK), 500, 1000 MG/KG/D FOR 13 WK FOLLOWED BY 13 WK FOR RECOVERY (STUDY DURATION: 26 WK), Tumor Site: Type of Lesion: THYMUS: LYMPHOMA) “active; positive”; (Species: MOUSE, Strain/Sex: B6C3F1/FEMALE, Route: GAVAGE, 1000 MG/KG BW A DAY FOR 3 MO FOLLOWED BY A 3-MO RECOVERY PERIOD (STUDY DURATION: 6 MO), Tumor Site: Type of Lesion: THYMUS: LYMPHOMA, SPLEEN: LYMPHOMA) “active; positive”; (Species: MOUSE, Strain/Sex: B6C3F1/MALE, Route: GAVAGE, 500, 1000 MG/KG BW A DAY FOR 6 MO (STUDY DURATION: 6 MO), 500, 1000 MG/KG BW A DAY FOR 6 MO (STUDY DURATION: 6 MO), Tumor Site: Type of Lesion: THYMUS: LYMPHOMA) “active; positive”. For the same compound, the carcinogen call (Species: MOUSE, Strain/Sex: B6C3F1/MALE, Route: GAVAGE, 500, 1000 MG/KG/D FOR 13 WK (STUDY DURATION: 13 WK), 500, 1000 MG/KG/D FOR 13 WK (STUDY DURATION: 13 WK)) was “inactive; negative”; the carcinogen call (Species: MOUSE, Strain/Sex: B6C3F1/MALE, Route: GAVAGE, 1000 MG/KG BW A DAY FOR 3 MO FOLLOWED BY A 3 MO RECOVERY PERIOD (STUDY DURATION: 6 MO), Tumor Site: Type of Lesion: THYMUS: LYMPHOMA) is “active; positive”; the carcinogen call (Species: MOUSE, Strain/Sex: NIH SWISS/FEMALE, Route: GAVAGE, 500, 1000 MG/KG BW A DAY FOR 6 MO (STUDY DURATION: 6 MO), 500, 1000 MG/KG BW A DAY FOR 6 MO (STUDY DURATION: 6 MO), Tumor Site: Type of Lesion: THYMUS: LYMPHOMA, SPLEEN: LYMPHOMA, LYMPH NODE: LYMPHOMA, Tumor Site: Type of Lesion: THYMUS: LYMPHOMA, SPLEEN: LYMPHOMA, LYMPH NODE: LYMPHOMA) was “active; positive”; the carcinogen call (Species: MOUSE, Strain/Sex: NIH SWISS/FEMALE, Route: GAVAGE, 1000 MG/KG BW A DAY FOR 3 MO FOLLOWED BY A 3-MO RECOVERY PERIOD (STUDY DURATION: 6 MO), Tumor Site: Type of Lesion: THYMUS: LYMPHOMA, SPLEEN: LYMPHOMA, LYMPH NODE: LYMPHOMA, Tumor Site: Type of Lesion: THYMUS: LYMPHOMA, SPLEEN: LYMPHOMA, LYMPH NODE: LYMPHOMA) is “active; positive”; the carcinogen call (Species: MOUSE, Strain/Sex: NIH SWISS/MALE, Route: GAVAGE, 500, 1000 MG/KG BW A DAY FOR 6 MO (STUDY DURATION: 6 MO), 500, 1000 MG/KG BW A DAY FOR 6 MO (STUDY DURATION: 6 MO), Tumor Site: Type of Lesion: THYMUS: LYMPHOMA) is “active; positive”; the carcinogen call (Species: MOUSE, Strain/Sex: NIH SWISS/MALE, Route: GAVAGE, 1000 MG/KG BW A DAY FOR 3 MO FOLLOWED BY A 3-MO RECOVERY PERIOD (STUDY DURATION: 6 MO), Tumor Site: Type of Lesion: THYMUS: LYMPHOMA) is “active; positive”.

In the case of `C=CCOC(Cn1ccnc1)c1ccc(Cl)cc1Cl` (stereo unspecified), the carcinogen call runs as follows: (Species: Mouse, Strain/Sex: Swiss/Female (50/Group), Route: Oral, 50, 200, 600 ppm 93% imazalil in diet in 50:50 Aerosil:corn starch for 2 yr, study duration 2 yr, 50, 200, 600 ppm 93% imazalil in diet in 50:50 Aerosil:corn starch for 2 yr, study duration 2 yr, Tumor Site: Type of Lesion: Liver: hepatocytic neoplasms) “active; positive”; (Species: Mouse, Strain/Sex: Swiss/Male (50/Group), Route: Oral, 50, 200, 600 ppm 93% imazalil in diet in 50:50 Aerosil:corn starch for 2 yr, study duration 2 yr, 50, 200, 600 ppm 93% imazalil in diet in 50:50 Aerosil:corn starch for 2 yr, study duration 2 yr, Tumor Site: Type of Lesion: Liver: hepatocytic neoplasms) “active; positive”; (Species: Rat, Strain/Sex: Cpb:WU/Female (20/Group), Route: Oral, 25, 100, 400 ppm 98.1% imazalil in diet for 18 mo, study duration 18 mo, 25, 100, 400 ppm 98.1% imazalil in diet for 18 mo, study duration 18 mo) “inactive; negative”; (Species: Rat, Strain/Sex: Cpb:WU/Male (20/Group), Route: Oral, 25, 100, 400 ppm 98.1% imazalil in diet for 18 mo, study duration 18 mo, 25, 100, 400 ppm 98.1% imazalil in diet for 18 mo, study duration 18 mo) “inactive; negative”.

With `C=CC`, the carcinogen call is, setting by setting: (Species: MOUSE, Strain/Sex: B6C3F1/FEMALE, Route: INHALATION, 5000, 10000 PPM IN AIR 6H/D 5D/WK FOR 103 WK (STUDY DURATION: 104 WK), 5000, 10000 PPM IN AIR 6H/D 5D/WK FOR 103 WK (STUDY DURATION: 104 WK)) “inactive; negative”; (Species: MOUSE, Strain/Sex: B6C3F1/MALE, Route: INHALATION, 5000, 10000 PPM IN AIR 6H/D 5D/WK FOR 103 WK (STUDY DURATION: 104 WK), 5000, 10000 PPM IN AIR 6H/D 5D/WK FOR 103 WK (STUDY DURATION: 104 WK)) “inactive; negative”; (Species: MOUSE, Strain/Sex: SWISS/FEMALE, Route: INHALATION, 200, 1000, 5000 PPM 7 HR/D, 5D/WK FOR 78 WK (STUDY DURATION: LIFESPAN), 200, 1000, 5000 PPM 7 HR/D, 5D/WK FOR 78 WK (STUDY DURATION: LIFESPAN)) “inactive; negative”; (Species: MOUSE, Strain/Sex: SWISS/MALE, Route: INHALATION, 200, 1000, 5000 PPM 7 HR/D, 5D/WK FOR 78 WK (STUDY DURATION: LIFESPAN), 200, 1000, 5000 PPM 7 HR/D, 5D/WK FOR 78 WK (STUDY DURATION: LIFESPAN)) “inactive; negative”; (Species: RAT, Strain/Sex: F344/FEMALE, Route: INHALATION, 5000, 10000 PPM IN AIR 6H/D 5D/WK FOR 103 WK (STUDY DURATION: 104 WK), 5000, 10000 PPM IN AIR 6H/D 5D/WK FOR 103 WK (STUDY DURATION: 104 WK)) “inactive; negative”; (Species: RAT, Strain/Sex: F344/MALE, Route: INHALATION, 5000, 10000 PPM IN AIR 6H/D 5D/WK FOR 103 WK (STUDY DURATION: 104 WK), 5000, 10000 PPM IN AIR 6H/D 5D/WK FOR 103 WK (STUDY DURATION: 104 WK)) “inactive; negative”. Besides, the carcinogen call is, setting by setting: (Species: RAT, Strain/Sex: SPRAGUE-DAWLEY/FEMALE, Route: INHALATION, 200, 1000, 5000 PPM 7 HR/D, 5D/WK FOR 104 WK (STUDY DURATION: LIFESPAN), 200, 1000, 5000 PPM 7 HR/D, 5D/WK FOR 104 WK (STUDY DURATION: LIFESPAN)) “inactive; negative”; (Species: RAT, Strain/Sex: SPRAGUE-DAWLEY/FEMALE, Route: INHALATION, 200, 1000, 5000 PPM IN AIR 7 HR/D 5 D/WK FOR 104 WK (STUDY DURATION: LIFETIME), 200, 1000, 5000 PPM IN AIR 7 HR/D 5 D/WK FOR 104 WK (STUDY DURATION: LIFETIME), Tumor Site: Type of Lesion: [BRAIN WAS ONLY SITE EVALUATED]) “inactive; negative”; (Species: RAT, Strain/Sex: SPRAGUE-DAWLEY/MALE, Route: INHALATION, 200, 1000, 5000 PPM 7 HR/D, 5D/WK FOR 104 WK (STUDY DURATION: LIFESPAN), 200, 1000, 5000 PPM 7 HR/D, 5D/WK FOR 104 WK (STUDY DURATION: LIFESPAN)) “inactive; negative”; (Species: RAT, Strain/Sex: SPRAGUE-DAWLEY/MALE, Route: INHALATION, 200, 1000, 5000 PPM IN AIR 7 HR/D 5 D/WK FOR 104 WK (STUDY DURATION: LIFETIME), 200, 1000, 5000 PPM IN AIR 7 HR/D 5 D/WK FOR 104 WK (STUDY DURATION: LIFETIME), Tumor Site: Type of Lesion: [BRAIN WAS ONLY SITE EVALUATED]) “inactive; negative”.
